# Values of other authors in US20120053222A1, “Novel Metabolic Disease Therapy” (priority 2009, published 2012).
# Tested on: ob/ob mice
# Conditions: injection
substance,measurement,value
exendin 4,liver steatosis,diminishes liver steatosis
